Measurements published in patent publication US7507792B2, “MDA-7 proteins and methods of use thereof” (The Trustees of Columbia University In The City of New York, priority 1993, dated 2009).

Key:
Assay type in all cases: cell-based, human
[1] = tested on: mda-9; assay: mda-9 expression (Northern blotting); details: H0-1
Experimental: The mass excision of the library was performed using ExAssist helper phage as described above. The SOLR strain of Escherichia coli and cDNA phagemids were mixed at 37° C. for 15 min and plated onto LB plates containing ampicillin and IPTG/X-gal. White colonies were chosen at random, isolated and grown in LB medium. Plasmid minireps and restriction enzyme digestions were performed to confirm the presence of inserts. The inserts were isolated and used as robes for Northern blotting analysis (5,25). […] Radiolabeled probes were generated by random oligonucleotide priming (25). Prehybridization, hybridization, posthybridization washes, and autoradiography were performed as described (5,18,25).

[2] = tested on: HL-525 cells; assay: OKM1 reactivity (immunofluorescence); details: TPA 3 nM, RA 1 μM or Vit D3 400 nM, percent OKM1 positive cells
Experimental: (§1) HL-60 cells were originally provided by Dr. R. C. Gallo (National Cancer Institute, Bethesda, Md.) (Collins et al., 1978; Huberman & Callaham, 1979). HL-60 cells designated HL-525 were derived by cloning HL-60 cells after subculturing 102 times in the presence of increasing concentrations (up to 3 μM) of TPA at 5- to 8-day intervals (Homma et al., 1986; Mitchell et al., 1986). […] Prior to the experiments described in this study, the HL-525 cells were subcultured more than 20 times in the absence of TPA. Cells were grown in 100-mm tissue culture dishes in RPMI 1640 medium supplemented with 20% fetal bovine serum, penicillin (100 units/ml) and streptomycin (100 μg/ml) (Grand Island Biological Co., NY) at 37° C. in an atmosphere of 5% CO2 in air in a humidified incubator. The 1,25-(OH)2D3(Vit D3) and TPA were dissolved in a final concentration of 0.01% DMSO, and all-trans retinoic acid (RA) was dissolved in 0.1% DMSO in culture medium. […] Control cultures were treated with DMSO at a final concentration of 0.1% in culture medium. For experiments designed to test the effect of DMSO on HL-60 and HL-525 cells, DMSO was added to tissue culture medium at a final concentration of 1%. Stock solutions of CHX (10 mg/ml) were prepared in culture medium. CHX was added at a final concentration of 10 μg/ml. To examine a requirement for protein synthesis on mda-6 gene expression, HL-60 or HL-525 cells were seeded into 150 mm Petri dishes (5×10^5 cells/ml) in 30 ml of medium. CHX was added to a final concentration of 10 μg/ml 15 min prior to the addition of TPA to 3 nM. Cells were harvested at various times after addition of TPA for subsequent RNA isolation and analysis.
(§2) Cell counts were determined by hemocytometer chamber counting. Immunofluorescence tests for reactivity with the OKM1 antibody (Ortho Pharmaceutical Corp., Raritan, N.J.) were performed as previously described (Murao et al., 1983).

[3] = tested on: HL-60 cells; assay: OKM1 reactivity (immunofluorescence); details: TPA 3 nM, RA 1 μM or Vit D3 400 nM, percent OKM1 positive cells
Experimental: as §1, §2

[4] = tested on: mda-6 (WAF1/CIP1/SDI1); details: HL-525, RA 1 μM; for time of treatment at which mda-6 expression is induced: TPA 3 nM, Vit D3 400 nM, 1 to 12 h test period
Experimental: as §1
RNA was purified by centrifugation through a CsC1 cushion as described by Chirgwin et al. (1979). Ten μg of RNA was denatured with glyoxal/DMSO, electrophoresed on 1.0% agarose gels, transferred to nylon membranes, hybridized to a ^32P-labeled mda-6 probe (Jiang and Fisher, 1993) and then after stripping the membrane hybridized to a ^32P-labeled rat GAPDH probe (Fort et al., 1985), as described previously (Reddy et at., 1991; Su et al., 1991; Jiang et al., 1992). Following hybridization, the filters were washed and exposed for autoradiography (Reddy et al., 1991; Su et al., 1991; Jiang et al., 1992). mda-6 and GAPDH gene expression were also determined by reverse transcription-polymerase chain reaction (RT-PCR) as described (Adollahi et al. 1991; Lin et al., 1994). Total cytoplasmic RNA was treated with 0.5 units DNase (Boehringer-Mannheim Biochemicals)/μg RNA in 15% glycerol, 10 mM Tris, pH 7.5, 2.5 mM MgCl2, 0.1 mM EDTA, 80 mM KC1, 1 mM CaCl2 and 1 unit/ml RNasin (Promega) at 30° C. for 10 min. RNA was extracted with phenol-chloroform, precipitated with sodium acetate/ethanol and RNA pellets were resuspended in diethylpyrocarbonate-treated H2O. One μg of total RNA was reverse transcribed with 200 units of murine leukemia virus reverse transcriptase (Bethesda Research Laboratories) in 20 μl containing 1 mM deoxyribonucleotide triphosphates, 4 mM MgCl2, 10 mM Tris, pH 8.3, 50 mM KC1, 0.001% gelatin and 0.2 μg oligo-dT primer. Samples were diluted to 100 μl with buffer containing 0.2 mM deoxyribonucleotide triphosphates, 2 mM MgCl2, 10 mM Tris, pH 8.3, 50 mM KC1 and 0.001% gelatin. […]

[5] = 96 hours, doses of FIG. 15 legend

| Compound | mda-9 expression ([1]; 24 hours, doses of FIG. 19, phenyl butyrate 24 hours, 4 days or 7 days) | mda-9 expression [1, 5] | OKM1 reactivity, Days of induction 4 [2] [%] | OKM1 reactivity, Days of induction 6 [2] [%] | OKM1 reactivity, Days of induction 2 [3] [%] | OKM1 reactivity, Days of induction 4 [3] [%] | OKM1 reactivity, Days of induction 6 [3] [%] | time of treatment at which mda-6 expression is detected ([4]; extended treatment 12 h to 6 d) [days] | time of treatment at which mda-6 expression is induced [4] [h] |
| --- | --- | --- | --- | --- | --- | --- | --- | --- | --- |
| C=C(C)[C@@]12O[C@@]3(c4ccccc4)O[C@@H]1[C@@H]1[C@@H]4O[C@]4(CO)[C@@H](O)[C@]4(O)C(=O)C(C)=C[C@H]4[C@@]1(O3)[C@H](C)[C@H]2OC(=O)/C=C/C=C/c1ccccc1 [MEZ, mezerein] | Increased expression | No change in mda-9 expression | – | – | – | – | – | – | – |
| CC1=C(/C=C/C(C)=C/C=C/C(C)=C/C(=O)O)C(C)(C)CCC1 [RA, trans-retinoic acid] | – | No change in mda-9 expression | 10 | 13 | 49 | 76 | 77 | 2 | > 12 |
| CCCCCCCCCCCCCC(=O)O[C@@H]1[C@@H](C)[C@@]2(O)[C@@H](C=C(CO)C[C@]3(O)C(=O)C(C)=C[C@@H]23)[C@@H]2C(C)(C)[C@]12OC(C)=O [TPA, 12-O-tetradecanoyl-phorbol-13-acetate] | – | – | 8 | 4 | 55 | 81 | 95 | – | 12 |
